Experimental data from patent US10294212B2 (CURADEV PHARMA PRIVATE LTD., priority 2013, dated 2019).

Tests used:
[1] = target: IDO1 in HeLa cells (Homo sapiens (Human), UniProt P14902); assay: HeLa cell based IDO1 assay (IFNγ-induced, KYN in supernatant)
Summary of the method: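 HeLa cells were induced overnight with IFNγ (50 ng/mL), washed, then exposed to compound (typically 10 μM–1 nM) in HBSS with 80 μM L-tryptophan. Supernatant was TCA-treated at 65 °C for 15 min to convert N-formylkynurenine, and KYN was measured by HPLC-UV at 360 nm. IC50 came from nonlinear regression against a 1% DMSO control.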

[2] = target: Human TDO (hTDO)-transfected CHO-K1 cells (Homo sapiens (Human), UniProt P48775); assay: CHO-K1 cell based TDO assay; conditions: hTDO cellular assay
Human TDO (hTDO)-transfected CHO-K1 cells, sequence (P48775 whole entry): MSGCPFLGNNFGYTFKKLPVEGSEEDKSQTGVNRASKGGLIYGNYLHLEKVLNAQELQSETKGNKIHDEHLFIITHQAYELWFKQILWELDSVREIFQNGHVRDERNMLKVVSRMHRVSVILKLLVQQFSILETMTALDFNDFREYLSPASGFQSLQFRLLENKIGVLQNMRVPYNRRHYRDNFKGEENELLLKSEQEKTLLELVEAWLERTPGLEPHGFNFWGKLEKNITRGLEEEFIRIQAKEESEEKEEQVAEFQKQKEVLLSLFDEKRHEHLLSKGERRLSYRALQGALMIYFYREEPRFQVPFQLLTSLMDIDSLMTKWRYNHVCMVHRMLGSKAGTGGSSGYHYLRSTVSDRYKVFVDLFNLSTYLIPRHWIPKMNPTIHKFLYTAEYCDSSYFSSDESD
Summary of the method: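 Stably hTDO-expressing CHO-K1 cells were exposed to compounds (typically 31 μM to 10 nM) in HBSS with 80 μM L-tryptophan for 2 h. TCA-treated supernatant was heated at 65° C for 15 min to convert N-formylkynurenine, then kynurenine was quantified by LC/MS/MS. IC50 came from percent inhibition versus DMSO control.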

[3] = target: Human indoleamine 2,3-dioxygenase1 (hIDO1) (Homo sapiens (Human), UniProt P14902); assay: In-vitro IDO1 enzyme assay (conversion of L-tryptophan to KYN); format: biochemical; conditions: read-out: IC50 (IDO1) Enz
Human indoleamine 2,3-dioxygenase1 (hIDO1), sequence (P14902 whole entry): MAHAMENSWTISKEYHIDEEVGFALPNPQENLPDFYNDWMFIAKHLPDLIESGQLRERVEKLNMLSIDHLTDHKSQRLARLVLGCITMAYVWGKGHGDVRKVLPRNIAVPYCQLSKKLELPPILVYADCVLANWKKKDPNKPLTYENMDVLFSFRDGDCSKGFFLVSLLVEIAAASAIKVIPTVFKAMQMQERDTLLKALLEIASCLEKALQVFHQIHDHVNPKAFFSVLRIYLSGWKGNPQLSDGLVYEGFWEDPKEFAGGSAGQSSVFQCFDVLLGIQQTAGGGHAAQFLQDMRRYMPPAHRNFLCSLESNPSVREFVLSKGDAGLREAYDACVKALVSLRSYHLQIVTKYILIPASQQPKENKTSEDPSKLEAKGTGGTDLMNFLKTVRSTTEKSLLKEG
Summary of the method: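 His-tagged hIDO1 (10 nM, E. coli-expressed) incubated with 30 μM L-tryptophan, 20 mM ascorbate, 10 μM methylene blue and 100 μg/mL catalase in 50 mM potassium phosphate pH 6.5, 30 min at 37 °C. TCA stop, then 65 °C hydrolysis; KYN measured by HPLC-UV at 360 nm or LC/MS/MS. IC50 by nonlinear regression versus 1% DMSO control.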

IDO1 in HeLa cells, sequence (P14902 whole entry): as above

| Compound | IC50 [1] [nM] | IC50 [2] [nM] | IC50 [3] [nM] |
| --- | --- | --- | --- |
| Nc1oc2cnccc2c1Nc1ccc(F)c(Cl)c1 [Compound 2, N^3-(3-Chloro-4-fluoro-phenyl)-furo[2,3-c]pyridine-2,3-diamine] | < 200 | 500 to 2000 | < 200 |
| Nc1oc2c(-c3ccncc3)nccc2c1Nc1ccc(F)c(Cl)c1 [Compound 97, N^3-(3-Chloro-4-fluorophenyl)-7-(pyridin-4-yl)furo[2,3-c]pyridine-2,3-diamine] | < 200 | < 500 | < 200 |
| Nc1oc2c(-c3ccncc3)nccc2c1Nc1ccc(F)c(F)c1 [Compound 184, N^3-(3,4-difluorophenyl)-7-(pyridin-4-yl)furo[2,3-c]pyridine-2,3-diamine] | < 200 | < 500 | < 200 |
